This passage reports melting point results from a melting point compilation (Tetko et al.).

In general, melting point refers to the temperature of the solid-liquid transition.

`CC(=O)OCC1(C)CCCC23COC4CC5C(C)C(=O)C6(C(CC12)OC(C)(C)OC56)C43` (stereo not given) came in with a melting point of 156 °C.
For `Brc1cnc2[nH]ccc2c1` the value was 179 °C; for `COc1ccccc1P(c1ccccc1OC)c1ccccc1OC`, 204 to 208 °C; for `CCN(CC)CC#CCOC(=O)C(O)(c1ccccc1)C1CCCCC1` (stereo not given), 130 °C.
`CC=NNc1ccc([N+](=O)[O-])cc1[N+](=O)[O-]` had a melting point of 166 °C.
Next, `C/C=C/C=C/C(=O)OC`: 15 °C.
On to `COc1ccc(N=C(CNc2ccc(OC)cc2)Nc2ccc(OC)cc2)cc1`, for which the melting point fell in the range of 158 to 159 °C.
Next, `CC(=O)c1ccccc1OCc1ccccc1`: 38 to 40 °C; `CC(=O)c1cccc(C(C)=O)n1`: 80 °C; `NNC(=O)CCCO`: 93 °C.
`Brc1ccc2c(c1)Oc1ccc(Br)cc1O2` registered a melting point of 193 °C.
`Clc1ccc2c(c1)Oc1cc(Cl)ccc1O2` showed a melting point of 151 °C.
Next, `Cc1cccc(C)c1NC(=O)C=CC(=O)O`: 169 °C.
Next, `CC(C)n1c2c(c(=O)[nH]c1=O)CCCC2`: 229 to 230 °C; `Nc1nc(N)nc(Cl)n1`: 320 °C.
For `Cc1ccc(-c2csnn2)cc1` the value was 73 to 75 °C; for `CCOC(=O)c1c(SC)nn(C(=O)c2cccc([N+](=O)[O-])c2)c1N`, 153 °C; for `O=C(Cl)c1ccc2nonc2c1`, 55 to 58 °C.
Regarding `CC(=O)CS(=O)(=O)c1ccc(Cl)cc1`, the melting point was in the range of 89 to 91 °C.
For `COC(=O)c1ccc(I)cc1O` the value was 69 °C.
Consider `CCCCCCCCCCCCCC=CC(O)C(N)CO` (stereo not given), for which the melting point was in the range of 81 to 82 °C.
For `CCOC(=O)c1c(C)cc(O)nc1O` the value was 219 °C.
`NC(=O)c1ccccc1N1CCCCC1`: the melting point was in the range of 115 to 118 °C.
Compound `c1ccc(-c2cc(-c3ccccc3)cc(-c3ccccc3)c2)cc1` displayed a melting point of 172 to 175 °C.
For `O=C(O)c1ccc(-c2ccccn2)s1` the value was 231 to 233 °C; for `c1ccc2c(c1)ccc1ncccc12`, 94 °C; for `O=C(O)c1cccc2c1OCO2`, 224 to 225 °C.
The compound `CN(C)CCCOc1ccccc1CO` showed a melting point of 55 to 57 °C.
For `CSc1nccc(-c2ccc(S(=O)(=O)Cl)s2)n1` the value was 129 to 131 °C; for `CC(=O)CCc1oc2ccccc2c1-c1ccc(C)o1`, 54 °C; for `O=C(c1ccc([N+](=O)[O-])cc1)c1noc(-c2ccc(Br)cc2)c1S(=O)(=O)c1ccccc1`, 178 °C.
Next, `O=C1c2ccccc2C(=O)c2c1cccc2[N+](=O)[O-]`: 232 °C; `O=S(O)c1ccccc1`: 84 °C.
Next, `Cc1ccccc1/N=N/c1c(C)[nH]c(=S)c(C#N)c1C`: 178 °C.
Consider `CC(C)(C(=O)O)C(O)c1ccccc1` (stereo not given), for which the melting point was in the range of 134 to 137 °C.
Next, `COc1ccc(CC#N)cc1Br`: 52 °C; `Cc1cccc(C)c1NC1=NCCCS1`: 140 °C.
For `CCOC(=O)C(Nc1cccc(NC(C(=O)OCC)C(=O)OCC)c1)C(=O)OCC` the value was 79 °C; for `c1ccc2c(c1)Oc1nc3ccccc3nc1O2`, 256 °C.
Next, `CSc1nc2ccccc2c(=O)n1-c1ccccc1`: 123 to 125 °C; `Oc1ccc(-c2nnc3n2NC(c2ccco2)S3)cc1` (stereo not given): 230 °C.
With `FC(F)(F)c1nnc(S)n1/N=C/c1ccc2c(c1)OCO2`, the melting point was 221 °C.
Next, `Nc1[nH]ncc1-c1ccc(F)cc1`: 174 to 175 °C; `CSc1ccc(C(=O)O)s1`: 103 to 105 °C; `c1ccc2c(c1)ccc1[nH]c3ccc4ccccc4c3c12`: 158 °C.
For the compound `O=C(CC(=O)c1cc(Cl)ccc1O)c1ccccc1`, the melting point was 107 to 112 °C.
For `CC1(C)C2CCC1(C)C(C(=O)O)OC2=O` (stereo not given) the value was 201 °C; for `CC(=O)OCCC(C)C`, -78.5 °C.
Compound `O=C(O)c1cc(O)ccc1O` gave a melting point of 204 to 207 °C.
For `CC(=O)C(c1ccccc1)c1ccc(C(F)(F)F)cc1[N+](=O)[O-]` (stereo not given) the value was 91 °C.
Next, `CC1C(=O)C23C4CC5C(C)(C)CCC(=O)C5(C)C2C(=O)CC1C3OC(C)(C)O4` (stereo not given): 197 °C.
For the compound `COC(=O)c1ccccc1CC#N`, the melting point was 48 °C.
With `C=CCOC(=O)CCC`, the melting point was -80 °C.
`Cc1cnc2ccccc2c1C` yielded a melting point of 73.5 °C.
Next, `C/C(CC(C)c1ccc(C)cc1)=N\NC(N)=O` (stereo not given): 146 °C.
Next, `CC(C)(C)OC(=O)N[C@@H](Cc1c[nH]c2ccccc12)C(=O)O`: 134 to 139 °C.
Take `C=CC(=O)NC(O)C(O)NC(=O)C=C` (stereo not given): the melting point is 142 °C.
Take `CCC(C)c1ccc(O)cc1` (stereo not given): the melting point was found to be 61.5 °C.
The compound `CCOC(=O)c1c(NC(=S)Nc2ccc(OC)cc2)sc2c1CCCC2` registered a melting point of 163 to 165 °C.
For `COc1ccccc1NC(=S)NN` the value was 151 to 153 °C.
For `O=[N+]([O-])c1cccc2c1cnn2C1CC(O)C(CO)O1` (stereo not given), the melting point is 140 °C.
Next, `FC(F)(F)c1cncc(C(F)(F)F)c1`: 37 °C; `Nc1n[nH]c(S)n1`: 300 °C; `COc1cc(C=CC(=O)O)cc(OC)c1O`: 203 to 205 °C.
For `Fc1ccc(C(Br)(c2ccc(F)cc2)c2ccc(F)cc2)cc1` the value was 109 °C; for `O=C(CCl)Nc1ccc(F)cc1`, 131 to 132 °C.
As to `CCCc1nc(OC(C)=O)n(-c2ccccc2)n1`, the melting point turned out to be 84 °C.
Consider `O=C(O)c1cccc(-c2cc[nH]n2)c1`, for which the melting point amounted to 204 °C.
Next, `CNc1ccc(C#N)cc1N`: 139 to 142 °C; `Cc1ccc([Si](C)(C)c2ccccc2CO)cc1`: 56 °C; `CCCCCCCCCCCCc1ccc(N)cc1`: 40.5 °C.
`O=C(NCCNC(=O)c1ccccc1)c1ccccc1` had a melting point of 244 °C.
For `CC(=O)Oc1ccc(C(C)=O)c(O)c1` the value was 57 to 59 °C.
Next, `CC(=O)Nc1ccc(S(=O)(=O)NCCO)cc1`: 126 to 127 °C; `CC#CCCCCCCCC`: -30.1 °C.
With `O=C(Nc1nccs1)C(F)(F)C(F)(F)C(F)(F)C(F)(F)C(F)(F)C(F)(F)C(F)(F)C(F)(F)F`, the melting point is 146 °C.
Turning to `Nc1ccc(F)c(C(=O)O)c1`, the melting point was 191 °C.
As to `NC(=S)CSc1ccccc1`, the melting point lay in the range of 88 to 91 °C.
On to `CN1C(=O)C(=NNc2ccc(Br)cc2)C(=O)N(C)C1=O`, for which the melting point is 218 °C.
In turn, `CCCCCCCCC=CCCCCCCCC(=O)O` gave a melting point of 45 °C.
